In the experiment the target is NS3 (Hepatitis C virus) (UniProt A3EZJ3). As to the kind of experiment: Inhibitory activity against hepatitis C virus helicase at 25 ug/mL. The note with it: Hepacivirus hominis.

The structures appear in SMILES notation.

Chain of NS3 (Hepatitis C virus) (A3EZJ3 as listed by the source): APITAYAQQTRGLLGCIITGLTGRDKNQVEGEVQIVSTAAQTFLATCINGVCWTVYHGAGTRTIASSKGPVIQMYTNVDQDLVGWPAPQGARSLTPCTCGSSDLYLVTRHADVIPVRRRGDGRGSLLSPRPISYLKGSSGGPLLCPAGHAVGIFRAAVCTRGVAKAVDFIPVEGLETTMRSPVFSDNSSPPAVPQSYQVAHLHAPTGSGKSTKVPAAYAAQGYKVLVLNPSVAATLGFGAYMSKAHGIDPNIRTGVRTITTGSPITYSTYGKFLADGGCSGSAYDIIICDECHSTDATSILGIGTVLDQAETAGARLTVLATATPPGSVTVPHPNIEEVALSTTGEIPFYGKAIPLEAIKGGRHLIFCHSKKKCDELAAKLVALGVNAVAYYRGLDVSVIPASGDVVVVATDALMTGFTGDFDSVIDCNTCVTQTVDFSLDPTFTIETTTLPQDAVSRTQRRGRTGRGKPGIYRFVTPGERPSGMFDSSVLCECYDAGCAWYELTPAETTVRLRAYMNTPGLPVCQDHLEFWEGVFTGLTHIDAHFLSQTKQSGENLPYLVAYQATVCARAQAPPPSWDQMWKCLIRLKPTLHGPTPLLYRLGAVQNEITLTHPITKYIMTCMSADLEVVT

What is called inhibition is the change of the read-out against control, counted positive when it falls. Read a low inhibition as a response near the control. For the compound `O=C(Nc1ccc(-c2nc3ccccc3[nH]2)cc1)c1ccc(C(=O)Nc2ccc(-c3nc4ccccc4[nH]3)cc2)cc1`, the inhibition was determined as 75%.

For `O=C(CCCCC(=O)Nc1ccc(-c2nc3ccccc3[nH]2)cc1)Nc1ccc(-c2nc3ccccc3[nH]2)cc1`, the inhibition was 75%.

Compound `O=C(NCCCCCCNC(=O)Nc1ccc(-c2nc3ccccc3[nH]2)cc1)Nc1ccc(-c2nc3ccccc3[nH]2)cc1` yielded an inhibition of 28%.

On to `O=C(CCC(=O)Nc1nc2ccccc2[nH]1)Nc1nc2ccccc2[nH]1`, for which the inhibition turned out to be 6%.

In turn, `O=C(CCCCCCCC(=O)Nc1nc2ccccc2[nH]1)Nc1nc2ccccc2[nH]1` showed an inhibition of 6%.

Compound `O=C(CCCCCCC(=O)Nc1ccc(-c2nc3ccccc3[nH]2)cc1)Nc1ccc(-c2nc3ccccc3[nH]2)cc1` had an inhibition of 75%.

As for `Cc1ccc2nc(-c3ccc(NC(=O)CCC(=O)Nc4ccc(-c5nc6ccc(C)cc6s5)cc4)cc3)sc2c1`, the inhibition amounted to 14%.

`O=C(NCCCCNC(=O)Nc1ccc(-c2nc3ccccc3[nH]2)cc1)Nc1ccc(-c2nc3ccccc3[nH]2)cc1` registered an inhibition of 20%.

On to `O=C(/C=C/C(=O)Nc1ccc(-c2nc3ccccc3[nH]2)cc1)Nc1ccc(-c2nc3ccccc3[nH]2)cc1`, for which the inhibition came out at 75%.

Take `O=C(CCCCC(=O)Nc1nccs1)Nc1nccs1`: the inhibition turned out to be 10%.

Turning to `O=C(CCCCC(=O)Nc1nc2ccccc2[nH]1)Nc1nc2ccccc2[nH]1`, the inhibition was 6%.

Turning to `O=C(CCCCCCC(=O)Nc1nc2ccccc2[nH]1)Nc1nc2ccccc2[nH]1`, the inhibition was 6%.
